One assay addresses T1, ΔNHAB1 with AtPYL5 (Arabidopsis thaliana, UniProt Q9FLB1).
T1 construct: His; made in house
Description: PP2C inhibition assay, HAB1 with AtPYL5. In kind it is biochemical. To be noted: read-out: inhibition of HAB1. Here is the method: (§1) His-tagged receptors and phosphatases were purified using nickel–nitrilotriacetic acid (Ni-NTA) affinity chromatography. Protein integrity was analyzed by SDS–polyacrylamide gel electrophoresis, followed by InstantBlue staining. Phosphatase activity was measured using p-Nitrophenyl Phosphate (pNPP) (25 mM) as substrate, 10 mM MnCl2,1 μM PP2C, and 2 μM of the indicated receptors. Proteins were incubated with the ligands for 10 min at room temperature. pNPP was then added to start the reactions, and the absorbance at 405 nm was monitored for 20 min in a ViktorX5 plate reader. Assays were repeated twice. For dose-response experiments, IC50 values were obtained with GraphPad Prism 9 using a nonlinear regression curve fit. Each ligand concentration was tested in triplicate. Phosphatase activity of ABI1 was measured using RRA(phosphoT)VA peptide as a substrate, as described ([27]).

The target of the next assay is T2, HAB1 with AtPYL4 (Arabidopsis thaliana, UniProt O80920).
T2 construct: His; made in house
As to the kind of experiment: PP2C inhibition assay, HAB1 with AtPYL4. In kind it is biochemical. To be noted: 1 µM phosphatase:2 µM receptor. The method, then:
as §1
Fig. S6. QB lacks bioactivity in tomato whereas iSB09 is
(A) Quantification of the leaf temperature difference at 2 and 5 days after spraying tomato plants with 0.1 % DMSO
(mock- treated control), 10 µM iSB09 or 10 µM QB.
Asterisk indicates p<0.001 (Student’s t test). Values show individual points and average ± SD (n=4 replicates for mock and chemical treatments). (B) IR-images of representative tomato plants at 2 days after being treated with 0.1 % DMSO […]

The source of these data is paper PMC10005185, “Structure-guided engineering of a receptor-agonist pair for inducible activation of the ABA adaptive response to drought” (Science Advances, 2023).

T1 sequence (Q9FLB1 whole entry, stated change not applied): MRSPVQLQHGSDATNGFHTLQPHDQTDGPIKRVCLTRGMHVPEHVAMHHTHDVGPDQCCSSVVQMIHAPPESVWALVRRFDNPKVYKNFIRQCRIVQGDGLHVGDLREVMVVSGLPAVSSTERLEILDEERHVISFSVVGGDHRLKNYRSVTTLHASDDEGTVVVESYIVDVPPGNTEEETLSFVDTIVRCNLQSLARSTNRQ
T2 sequence (Q9CAJ0 179-511): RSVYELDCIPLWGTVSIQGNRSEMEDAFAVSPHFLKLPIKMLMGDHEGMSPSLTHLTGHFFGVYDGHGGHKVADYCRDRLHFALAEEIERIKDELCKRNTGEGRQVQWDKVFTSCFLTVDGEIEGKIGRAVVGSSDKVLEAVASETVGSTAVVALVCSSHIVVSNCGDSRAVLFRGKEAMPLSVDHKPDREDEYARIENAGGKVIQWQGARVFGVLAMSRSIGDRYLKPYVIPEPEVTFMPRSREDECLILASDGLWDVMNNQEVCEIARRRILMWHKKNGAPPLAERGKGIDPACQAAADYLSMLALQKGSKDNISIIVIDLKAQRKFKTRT
T2 sequence (O80920 whole entry): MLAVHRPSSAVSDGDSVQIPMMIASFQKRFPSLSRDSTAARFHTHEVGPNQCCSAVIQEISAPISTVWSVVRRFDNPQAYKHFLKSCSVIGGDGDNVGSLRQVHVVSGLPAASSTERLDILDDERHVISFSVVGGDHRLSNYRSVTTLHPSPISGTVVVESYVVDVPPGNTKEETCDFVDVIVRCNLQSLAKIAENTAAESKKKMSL

In the case of `CCn1c(=O)cc(C)c2cc(CNS(=O)(=O)c3ccccc3)ccc21` [iSB09], the inhibition at 1 µM on ΔNHAB1 with AtPYL5 is 60 to 70%. Also, on HAB1 with AtPYL4, the IC50 stood at 330 nM.

For orientation: inhibition means the relative decrease from the control value, in per cent. One may read the IC50 as the midpoint of a concentration-inhibition curve.
